The assay deals with P388 leukemia ip, CD2F1 mice, survival T/C. As to the kind of experiment: NCI In Vivo Anticancer Drug Screen. Data for tumor model P388 Leukemia (intraperitoneal) in CD2F1 (CDF1) mice. Particulars: endpoint: median survival time, higher = longer survival. The procedure, abridged:
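Mice carrying the transplanted tumor received test compound or vehicle. Survival was recorded in each group, and the value is the treated-group measurement divided by that of the vehicle-treated control group.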

Setting [1] is: dose: 50.0 mg/kg/injection, schedule: Q01DX009 (ip), vehicle: saline with Tween-80.
Where [2] appears, read: dose: 100.0 mg/kg/injection, schedule: Q01DX009 (ip), vehicle: saline with Tween-80.
Setting [3] is: dose: 200.0 mg/kg/injection, schedule: Q01DX009 (ip), vehicle: saline with Tween-80.
[4] abbreviates: dose: 12.5 mg/kg/injection, schedule: Q01DX009 (ip), vehicle: saline with Tween-80.
The mark [5] stands for this setting: dose: 25.0 mg/kg/injection, schedule: Q01DX009 (ip), vehicle: saline with Tween-80.
[6] abbreviates: dose: 50.0 mg/kg/injection, schedule: Q01DX005 (ip), vehicle: saline with Tween-80.
The mark [7] stands for this setting: dose: 100.0 mg/kg/injection, schedule: Q01DX005 (ip), vehicle: saline with Tween-80.
The mark [8] stands for this setting: dose: 60.0 mg/kg/injection, schedule: Q01DX005 (ip), vehicle: saline.
Where [9] appears, read: dose: 120.0 mg/kg/injection, schedule: Q01DX005 (ip), vehicle: saline.
Where [10] appears, read: dose: 240.0 mg/kg/injection, schedule: Q01DX005 (ip), vehicle: saline.
The mark [11] stands for this setting: dose: 200.0 mg/kg/injection, schedule: Q01DX005 (ip), vehicle: saline with Tween-80.

The structures appear in SMILES notation. Where “and” joins values, the source holds several entries; their conditions need not be identical. Equal values may be shown once. Toxic doses and inconclusive results are not listed. Numbered stars: 1 amine (or outer) side, 2 acyl side, 3 side chain; on linkers, the order of the positions; unused ones are H or OH. Bridge positions count the residues as written; N and C are the ends. Square brackets hold non-standard residues; d marks the D form. Peptide text beside a SMILES is read from it. I, II: the chains in the order shown. * marks the point of attachment. ξ: configuration not given here. Quinaldoyl(3-OH,6-OMe) = COc1ccc2nc(C(=O)*)c(O)cc2c1; X8 = CC(=O)OC1CC=NN([*:1])C1C(=O)[*:2]; ξNMeVal(3-OH) = CNC(C(=O)O)C(C)(C)O; X20 = O=C(C1CCCNN1[*:1])[*:2]; Sar = CNCC(=O)O

For the compound `CSC(=S)N/N=C(\C)c1cccs1`, the T/C reads like this: under setting [1], 91 % of control; under setting [2], 111 % of control; under setting [3], 110 % of control.
The corresponding values for `Cc1ccc(NNC2=NC(=S)NC(=O)C2)cc1` are 111 % of control, 95 % of control and 104 % of control.
As for `COc1ccc(OC(=O)Nc2cc(Cl)c(OC)cc2OC)c(Cl)c1`, the T/C was 98 % of control (dose: 50.0 mg/kg/injection, schedule: Q01DX009 (ip), vehicle: saline + alcohol); 105 % of control (dose: 100.0 mg/kg/injection, schedule: Q01DX009 (ip), vehicle: saline + alcohol); 96 % of control (dose: 200.0 mg/kg/injection, schedule: Q01DX009 (ip), vehicle: saline + alcohol).
`Cc1ccc(-n2nc(C)c3c(N)nc(N)nc32)c(Cl)c1`: the T/C runs as follows: (dose: 100.0 mg/kg/injection, schedule: Q04DX003 (ip), vehicle: Klucel (hydroxypropylcellulose) (HPC)) 101 % of control; (dose: 200.0 mg/kg/injection, schedule: Q04DX003 (ip), vehicle: Klucel (hydroxypropylcellulose) (HPC)) 101 % of control; (dose: 400.0 mg/kg/injection, schedule: Q04DX003 (ip), vehicle: Klucel (hydroxypropylcellulose) (HPC)) 103 % of control.
On to `CCCC(=O)O[C@H]1/C(=C/C(=O)OC)C[C@H]2C[C@H]([C@@H](C)O)OC(=O)C[C@H](O)C[C@@H]3C[C@H](OC(=O)CC(C)C)C(C)(C)[C@](O)(C[C@@H]4C/C(=C\C(=O)OC)C[C@H](/C=C/C(C)(C)[C@]1(O)O2)O4)O3`, for which the T/C (dose: 0.01 mg/kg/injection, schedule: Q01DX009 (ip), vehicle: saline + alcohol) is 111 % of control and the T/C (dose: 0.05 mg/kg/injection, schedule: Q01DX009 (ip), vehicle: saline + alcohol) was 113 % of control.
On to `CN1C(c2ccccc2)C2CCCC(C2O)C1c1ccccc1` (centres undefined), for which the T/C is, setting by setting: (dose: 100.0 mg/kg/injection, schedule: Q04DX003 (ip), vehicle: saline) 97 % of control; (dose: 200.0 mg/kg/injection, schedule: Q04DX003 (ip), vehicle: saline) 100 % of control; (dose: 400.0 mg/kg/injection, schedule: Q04DX003 (ip), vehicle: saline) 98 % of control.
As for `N=C(N)C(Cl)(Cl)Cl`, the T/C is, setting by setting: under setting [4], 108 % of control; under setting [5], 106 % of control; under setting [1], 101 % of control and 106 % of control.
As for `CC(C)N(Cc1ccccc1)C(=O)Nc1ccc(Cc2ccc(NC(=O)N(Cc3ccccc3)C(C)C)cc2)cc1`, the T/C (dose: 50.0 mg/kg/injection, schedule: Q01DX009 (ip), vehicle: Klucel (hydroxypropylcellulose) (HPC)) is 90 % of control; the T/C (dose: 100.0 mg/kg/injection, schedule: Q01DX009 (ip), vehicle: Klucel (hydroxypropylcellulose) (HPC)) was 96 % of control; the T/C (dose: 200.0 mg/kg/injection, schedule: Q01DX009 (ip), vehicle: Klucel (hydroxypropylcellulose) (HPC)) was 93 % of control.
Take `Cc1ccc(C[n+]2cc3ccccc3cc2/C=N\O)cc1`: the T/C under setting [6] is 98 % of control and the T/C under setting [7] was 109 % of control.
Consider `O=c1[nH]c2ccccc2cc1CBr`, for which the T/C (dose: 50.0 mg/kg/injection, schedule: Q04DX002 (ip), vehicle: Klucel (hydroxypropylcellulose) (HPC)) was 95 % of control; the T/C (dose: 100.0 mg/kg/injection, schedule: Q04DX002 (ip), vehicle: Klucel (hydroxypropylcellulose) (HPC)) was 102 % of control and 104 % of control; the T/C (dose: 400.0 mg/kg/injection, schedule: Q04DX002 (ip), vehicle: Klucel (hydroxypropylcellulose) (HPC)) is 96 % of control.
Regarding `COc1ccc2nc(C(=O)NC3COC(=O)C(C(C)(C)O)N(C)C(=O)CN(C)C(=O)CNC(=O)C4CCCNN4C(=O)C(NC(=O)c4nc5ccc(OC)cc5cc4O)COC(=O)C(C(C)(C)O)N(C)C(=O)CN(C)C(=O)CNC(=O)C4C(OC(C)=O)CC=NN4C3=O)c(O)cc2c1` (centres undefined) (I: {Quinaldoyl(3-OH,6-OMe)}-S[X8]G[Sar][ξNMeVal(3-OH)] / II: {Quinaldoyl(3-OH,6-OMe)}-S[X20]G[Sar][ξNMeVal(3-OH)]; ester I:1-II:C, I:C-II:1; configuration not given here), the T/C was 97 % of control (dose: 20.0 micrograms/kg/injection, schedule: Q01DX005 (ip), vehicle: DMSO) and 87 % of control (dose: 40.0 micrograms/kg/injection, schedule: Q01DX005 (ip), vehicle: DMSO).
Consider `CC(=O)N1C(=O)C2(Nc3cc4ccccc4cc3N2)c2ccccc21`, for which the T/C (dose: 60.0 mg/kg/injection, schedule: Q01DX005 (ip), vehicle: saline with Tween-80) was 94 % of control; the T/C (dose: 120.0 mg/kg/injection, schedule: Q01DX005 (ip), vehicle: saline with Tween-80) was 93 % of control; the T/C (dose: 240.0 mg/kg/injection, schedule: Q01DX005 (ip), vehicle: saline with Tween-80) is 92 % of control.
Regarding `Clc1ccc(N=c2ccn3ccccc3c2)cc1Cl`, the T/C by setting is: under setting [4], 94 % of control; under setting [5], 94 % of control; under setting [1], 97 % of control.
On to `CN(C)c1noc2c1c(=O)n(C)c(=O)n2C`, for which the T/C was 105 % of control under setting [8], 100 % of control under setting [9] and 99 % of control under setting [10].
Regarding `CCOc1ccc(N=NC2C(=O)N(c3cccc(Cl)c3Cl)C(=S)N(c3ccc(OC)cc3)C2O)cc1` (centres undefined), the T/C is, setting by setting: (dose: 100.0 mg/kg/injection, schedule: Q01DX001 (ip), vehicle: Klucel (hydroxypropylcellulose) (HPC)) 100 % of control; (dose: 200.0 mg/kg/injection, schedule: Q01DX001 (ip), vehicle: Klucel (hydroxypropylcellulose) (HPC)) 96 % of control; (dose: 400.0 mg/kg/injection, schedule: Q01DX001 (ip), vehicle: Klucel (hydroxypropylcellulose) (HPC)) 96 % of control.
In the case of `CCOC(=O)c1c[nH]c2ccc(N(CCO)CCO)cc12`, the T/C was 102 % of control under setting [6], 105 % of control under setting [7] and 108 % of control under setting [11].
Take `COC(CC(C)(O)C(F)(F)F)OC` (centres undefined): the T/C by setting is: under setting [8], 103 % of control; under setting [9], 112 % of control; under setting [10], 110 % of control.
In the case of `O=C(O)CNC(=O)C1(N2C(=O)c3ccccc3C2=O)CCCC1`, the T/C was 99 % of control under setting [6], 101 % of control under setting [7] and 97 % of control under setting [11].
Consider `O=C(CNSc1ccc([N+](=O)[O-])cc1[N+](=O)[O-])OCc1ccccc1`, for which the T/C reads like this: (dose: 50.0 mg/kg/injection, schedule: Q01DX005 (ip), vehicle: saline + Tween-80 + alcohol) 100 % of control; (dose: 100.0 mg/kg/injection, schedule: Q01DX005 (ip), vehicle: saline + Tween-80 + alcohol) 106 % of control; (dose: 200.0 mg/kg/injection, schedule: Q01DX005 (ip), vehicle: saline + Tween-80 + alcohol) 97 % of control.
Turning to `CC(=O)NCCSSCCSC(=S)N1CCCCC1`, the T/C (dose: 50.0 mg/kg/injection, schedule: Q01DX005 (ip), vehicle: Klucel (hydroxypropylcellulose) (HPC)) is 112 % of control; the T/C (dose: 100.0 mg/kg/injection, schedule: Q01DX005 (ip), vehicle: Klucel (hydroxypropylcellulose) (HPC)) is 107 % of control; the T/C (dose: 200.0 mg/kg/injection, schedule: Q01DX005 (ip), vehicle: Klucel (hydroxypropylcellulose) (HPC)) is 102 % of control.
With `O=C1CC(C(=O)O)C(C(=O)O)O1` (centres undefined), the T/C is 100 % of control (dose: 50.0 mg/kg/injection, schedule: Q01DX005 (ip), vehicle: saline); 111 % of control (dose: 100.0 mg/kg/injection, schedule: Q01DX005 (ip), vehicle: saline); 93 % of control (dose: 200.0 mg/kg/injection, schedule: Q01DX005 (ip), vehicle: saline).
As to `CCC(C)c1cc(/C=C2/OC(=O)c3ccccc32)cc(C(C)CC)c1O` (centres undefined), the T/C by setting is: (dose: 100.0 mg/kg/injection, schedule: Q04DX002 (ip), vehicle: saline) 100 % of control; (dose: 200.0 mg/kg/injection, schedule: Q04DX002 (ip), vehicle: saline) 99 % of control; (dose: 400.0 mg/kg/injection, schedule: Q04DX002 (ip), vehicle: saline) 93 % of control.
As for `C=C(C)CC1(CC)C(=O)NC(=S)NC1=O`, the T/C runs as follows: (dose: 50.0 mg/kg/injection, schedule: Q04DX003 (ip), vehicle: saline with Tween-80) 104 % of control; (dose: 100.0 mg/kg/injection, schedule: Q04DX003 (ip), vehicle: saline with Tween-80) 104 % of control; (dose: 200.0 mg/kg/injection, schedule: Q04DX003 (ip), vehicle: saline with Tween-80) 86 % of control.
For `CCCCCCCCCCCCCCCC(=O)O`, the T/C was 107 % of control under setting [1], 102 % of control under setting [2] and 102 % of control under setting [3].

The values are drawn from PubChem BioAssay AID330 (DTP/NCI, 2004).
